Reference: patent EP0308913A2, “2,6-Methanopyrrolo-3-benzazocines, a process and intermediates for their preparation and their use as medicaments” (HOECHST-ROUSSEL PHARMACEUTICALS INCORPORATED, priority 1987, dated 1989)

Tested on: mice
Assay: modified phenyl-p-quinone writhing assay in mice (analgesia)
Assay type: in vivo
Conditions: Mus musculus, sc; male CD-1 mice; test compound s.c. at peak time before phenyl-p-quinone; calculated ED50 by linear regression; read-out: Analgesic Activity (Inhibition of Writhing ED5Ø (mg/kg, s.c.)) (converted)
Procedure: The 2,6-methanopyrrolo-3-benzazocines of this invention are useful as analgetics due to their ability to alleviate pain in mammals. The procedure employed to determine analgetic utility is a modification of the phenyl-p-quinone writhing assay in mice, a standard assay for analgesia [Proc. Soc. Exptl. Bio. Med., 95 729 (1957)]. In the modified procedure phenyl-p-benzoquinone (Eastman, 12.5 mg) is dissolved in 5 ml of 95% ethanol and the solution is diluted to a total volume of 100 ml with distilled water. The solution is administered to the subject mice […] at a dose of 10 ml per kg of body weight. A characteristic "writh", an inward rotation of one or more feet with twisting and turning of the trunk, drawing in of the abdominal wall, lordosis and arching of the back, is produced.
A total of 28 male mice (Charles River, CD-1), weighing 18 to 30 grams, are employed for a time response. The subject animals receive food and water ad libitum. Test compounds are dissolved in distilled water, or suspended in distilled water containing one drop of a suitable surfactant, such as Tween-80.
Four groups of five animals (20 animals) are given the test compound subcutaneously at 15, 30, 45 and 60 minutes prior to administration of the phenyl-p-quinone. Four control groups of 2 animals (8 animals) receive an equal volume of the vehicle. After the administration of the phenyl-p-quinone, the mice are placed separately in one liter beakers, and after five minutes, are observed for ten minutes. The number of writhes for each animal is recorded. The following formula is used to compute the percent inhibition: [formula]
The time period with the greatest percent of inhibition is considered the peak time. A dose range determination is generally reserved for those compounds which inhibit writhing by greater than 65-70% at the screening dose.
A dose range determination is run in the same manner as the time response except 10 animals per group are tested at the peak time of test drug activity. Fifty animals, 4 test drug groups, and a vehicle control are employed. Animals are dosed and tested in a randomized manner. A calculated ED₅₀, i.e., the dose at which 50% inhibition of writhing is produced, is determined by a computer linear regression analysis. The calculated subcutaneous (s.c.) dose effecting an approximately 50% inhibition of writhing (ED₅₀) in mice produced in this assay is as follows: […]

SMILES	ED50
CC1C2Cc3cc4c(cc3C1(C)CCN2C)NCC4 (stereo not shown) [1,2,3,4,5,6,9,10-Octahydro-3,6,12-trimethyl-2,6-methano-8H-pyrrolo[2,3-i][3]benzazocine]	35.5 mg/kg
CC1C2Cc3cc4cc[nH]c4cc3C1(C)CCN2C (stereo not shown) [1,2,3,4,5,6-Hexahydro-3,6,12-trimethyl-2,6-methano-8H-pyrrolo[2,3-i][3]benzazocine]	29.5 mg/kg
CC1C2Cc3c(ccc4[nH]ccc34)C1(C)CCN2C (stereo not shown) [1,2,3,4,5,6-Hexahydro-3,6,12-trimethyl-2,6-methano-9H-pyrrolo[2,3-j][3]benzazocine]	30.4 mg/kg
CC1C2Cc3c(ccc4c3C(=O)C(=O)N4)C1(C)CCN2C (stereo not shown) [1,2,3,4,5,6-Hexahydro-3,6,12-trimethyl-2,6-methanopyrrolo[2,3-j][3]benzazocine-10,11(9H)-dione]	24.3 mg/kg
CC1C2Cc3ccc4[nH]ccc4c3C1(C)CCN2C (stereo not shown) [1,2,3,4,5,6-hexahydro-3,6,12-trimethyl-2,6-methano-9H-pyrrolo[3,2-h][3]benzazocine]	0.6 mg/kg
CC1C2Cc3cc4[nH]ccc4cc3C1(C)CCN2C (stereo not shown) [1,2,3,4,5,6-hexahydro-3,6,12-trimethyl-2,6-methano-10H-pyrrolo[3,2-i][3]benzazocine]	1.8 mg/kg
CC(C)=CCN1CCC2(C)c3cc(O)ccc3CC1C2C (stereo not shown) [pentazocine, reference compound]	1.3 mg/kg
